Measured values: patent US11459586B2, “Methods for increasing efficiency of nuclease-mediated gene editing in stem cells” (President and Fellows of Harvard College, priority 2016, dated 2022)

Tested on: human iPSC
Assay: gene targeting (mThy1, mCD147) in hiPSC transiently transfected with Cas9-IRES-anti-apoptotic gene plasmids
Format: cell-based
Method: FIGS. 4A-D. Bcl-2 overexpression increases HR-mediated gene targeting in human iPSC when transiently transfected with the Cas9 nuclease. FIG. 4A. Mouse Thy1 gene targeting scheme. FIG. 4B. Plasmids were constructed to constitutively express Cas9 together with an anti-apoptotic gene (separated by an IRES) under the constitutively active EF1α promoter. Plain human iPSC were nucleofected with 0.5 μg of one of these Cas9 plasmids together with 2 μg of the mThy1 targeting vector and 1.5 μg of plasmids expressing the Thy1 Left, Right, both, or no sgRNAs (pUC19). Five days later, cells were analyzed by flow cytometry. FIG. 4C. Flow cytometry staining for mThy1 and hThy1 for the Cas9 only sample gated on live single cells; the percent of cells in each quadrant is indicated. […] FIG. 4D. Compiled gene editing frequencies. The percent of mThy1^+hThy1^− (bottom portion of each bar in the left, center, and right grafts), mThy1^+hThy1^+ (top portion of bars in the left and center graphs), and mThy1^−hThy1^− (top portion of bars in the right graph) cells is graphed for each indicated sample. Lines mark the percentages for the Cas9 only sample. Results are representative of two independent experiments.
FIGS. 8A-F. Wild type Bcl-2 improves gene targeting at various genomic loci across multiple hiPSC lines. FIG. 8A. Plasmids were constructed to constitutively express the Cas9 nuclease with a form of Bcl-2 (separated by an IRES), and a sgRNA. Three human iPSC lines were nucleofected with 2 μg of mThy1 or mCD147 targeting vector and 2 μg of “Cas9 sgRNA” or “Cas9 Bcl-2 sgRNA” expression plasmid. 5-9 days later, cells were analyzed by flow cytometry. FIG. 8B. Mouse Thy1 gene targeting scheme. FIG. 8C. Single amino acid mutations were generated for the Bcl-2 BH1 (G145A) or BH4 (Y28A) domains. Compiled gene editing frequencies for cells transfected with the Left, Right, or Both Thy1 sgRNAs. The percent of mThy1^+hThy1^− (bottom portion of each set of bars in each graph), mThy1^+hThy1^+ (top portion of left and center sets of bars in each graph and center portion of right set of bars in each graph), and mThy1^−hThy1^− (top portion of right set of bars in each graph) cells among the various samples is indicated. FIG. 8D. Mouse CD147 gene targeting scheme. FIG. 8E. Flow cytometry staining for mCD147 and hCD147 for retrovirally-derived PGP1 hiPSC transfected with “Cas9 sgRNA” or “Cas9 Bcl-2 sgRNA”. Samples are gated on live single cells; the percent of cells in each quadrant is indicated. FIG. 8F. Compiled gene editing frequencies for cells transfected with the Left, Right, or both CD147 sgRNAs. The percent of mCD147^+hCD147^− (bottom portion of each set of bars in each graph), mCD147^+hCD147^+ (top portion of left and center sets of bars in each graph and center portion of right set of bars in each graph), and mCD147^−hCD147^− (top portion of right set of bars in each graph) cells among the three hiPSC lines is indicated.
PCR reactions were done using polymerase sold under the trademark KAPA HIFI™ HotStart polymerase; primers and double-stranded DNA fragments sold under the trademark GBLOCKS® are from IDT. Plasmids were constructed using isothermal assembly, transformed into Stbl3 competent E. coli (Invitrogen), grown at 30° C., and verified by Sanger sequencing (Genewiz). Anti-apoptotic genes were obtained from previously published plasmids: Bcl-2 (Addgene plasmid #8793) and Bcl-xL (#8790) (Cheng et al., 2001); Bcl2A1 (#36973) (Pratt et al., 2012); and Mcl-1 (#21605) (Maurer et al., 2006). The dominant negative p53 sequence from Addgene plasmid #9058 (Hahn et al., 2002) was synthesized as a gBlock. These genes were cloned into the EF1α promoter-Cas9 nuclease plasmid after an IRES.
The U6 promoter-sgRNA (for each sgRNA sequence) was cloned into the EF1α promoter-Cas9 nuclease or EF1α promoter-Cas9 nuclease-IRES-Bcl-2 expression plasmids to form the “Cas9 only sgRNA” or “Cas9 Bcl-2 sgRNA” plasmids used in Examples 6 and 7. […]

## Bcl-2: B cell lymphoma 2 protein, anti-apoptotic, overexpressed from lentivirus or Cas9 plasmid
Bcl-2 on the Cas9 plasmid, PGP4 hiPSC line
  gene targeting at the CD147 and Thy1 loci: markedly improved gene targeting
Bcl-2 on the Cas9 plasmid, retroviral and non-integrating PGP1 hiPSC lines
  mCD147 gene targeting frequencies: substantially and reproducibly increased gene targeting frequencies
Cas9 Bcl-2 sgRNA plasmids, transient transfection
  mThy1 gene targeting, wild type vs mutant Bcl-2: greatest enhancement
Transient transfection of Cas9-IRES-anti-apoptotic factor plasmid
  mThy1 gene targeting frequencies compared to Cas9 only controls: the only anti-apoptotic factor that increased gene targeting frequencies
